Data as given in patent US7772252B2, “Heterocyclic substituted carbonyl derivatives and their use as dopamine D3 receptor ligands” (Aventis Pharmaceuticals Inc., priority 2001, dated 2010).

biological target: T1, cloned human dopamine D3 receptors (Homo sapiens, UniProt P35462); assay: [N-Methyl-3H]Spiroperidol binding to cloned human dopamine D3 receptors; details: read-out: D3 Ki
T1 construct: expressed in transfected cells; membrane homogenate
Description: [N-Methyl-^3H]Spiroperidol Binding to Cloned Human Dopamine D3 Receptors
This assay measures the in vitro activity of compounds on cloned human dopamine (D3) receptors and predicts the direct dopamine-blocking properties of putative neuropsychiatric agents at human dopamine D3 receptors.
The D3 gene was isolated from a human striatal cDNA library (Stratagene). The gene was sequenced and sub-cloned into the expression vector RC/RSV (Invitrogen). CHO (Chinese Hamster Ovary) cells were stably transfected with 10 μg of the D3/RSV plasmid using the DOTAP method from Boehringer Mannheim and 72 clones that were G418 resistant were isolated. Using mRNA and binding displacement data a single high expressing clone was identified. This clone was then grown in large batches for the purpose of developing a 96 well format assay.
• 1. One plate (10 cm) with approximately 2-3 million D3 cells per plate is incubated with 1 ml of Trypsin-EDTA at room temperature for ˜2 min or until cells have lifted off plates. Four ml of Ham's F12+10% Fetal Bovine Serum+1% Penicillin/Streptomycin+G418 (400 μg/ml) medium are added to resuspend cells and 1 ml of this is added to each large plate (15 cm) containing 19 ml of the same medium as mentioned above. • 2. The 5 large plates are incubated at 37° C.+5% CO2 for ˜3 days or until the cells are confluent. • 3. After these plates are confluent, they are split into 10 large plates. Medium is aspirated off, 2 ml of Trypsin-EDTA are added to each plate and plates are incubated at RT for 2 min or until cells have lifted off the plate. Eight ml of the F12 medium (same medium as #1 above) are added to each plate (10 ml total) to resuspend the cells and 5 ml are transferred to the 2 new plates containing 15 ml of the F12 media. • 4. The 10 large plates are incubated at 37° C.+5% CO2 for ˜2 days or until the cells are confluent. • 5. The 10 large plates are split into 60 large plates (using Trypsin-EDTA as #3 except 4 ml of F12 medium are added to resuspend cells and 1 ml is aliquoted to 6 new plates containing 19 ml of F12 medium each). • 6. Plates are incubated at 37° C.+5% CO2 for ˜3 days or until cell are confluent. • 7. The 60 large plates are then split into 60 roller bottles (100-150 million cells/bottle). Medium is aspirated off, 2 ml of Trypsin-EDTA are added to each plate and incubated at RT for ˜2 minutes or until cells have lifted off plates. Eight ml of F12 medium are added to each plate to resuspend cells and the entire 10 ml are added to 1 roller bottle containing 90 ml of the F12 medium. • 8. The 60 roller bottles are immediately placed on their sides and transferred to the roller bottle incubator. They are incubated at 37° C.+5% CO2 for ˜3-5 days. Cells are spun at 30-40% motor speed in the Form a incubator. • 9. Medium is poured off and cells are washed 2× in PBS. • 10. Cells are then scraped off in 20 ml of PBS and the bottles are rinsed again with 5 ml of PBS to remove any remaining cells. Cells are stored on ice before membrane preparation. • 11. The yield for 60 D3 roller bottles has varied from ˜260-500 mg. • Note: All tissue culture reagents are from Gibco-BRL. C. Membrane Preparation
The cells are harvested into 250 ml centrifuge tubes with 100 volumes of cold phosphate buffered saline (PBS) and spun down (1200×G for 10 min at 4° C.). The medium is removed and 100 ml PBS are added to each centrifuge tube, cells are resuspened and spun down again. The PBS is removed and the final pellet is homogenized in an appropriate volume of 10% DMSO with a polytron on ice at a medium setting.
A 200 μl sample membrane homogenate is added to 200 μl of 1% SDS, vortexed and allowed to stand for 5 min. Aliquots (25, 50 and 100 μl) of this mixture are assayed in duplicate following the standard Bio-Rad DC protein assay protocol (kit catalog number 500-0112) and using reagent S. Absorbance readings are made at 750 nm (note: the most accurate protein OD readings are between 0.1-0.5 units). […]

T1 sequence (P35462 whole entry): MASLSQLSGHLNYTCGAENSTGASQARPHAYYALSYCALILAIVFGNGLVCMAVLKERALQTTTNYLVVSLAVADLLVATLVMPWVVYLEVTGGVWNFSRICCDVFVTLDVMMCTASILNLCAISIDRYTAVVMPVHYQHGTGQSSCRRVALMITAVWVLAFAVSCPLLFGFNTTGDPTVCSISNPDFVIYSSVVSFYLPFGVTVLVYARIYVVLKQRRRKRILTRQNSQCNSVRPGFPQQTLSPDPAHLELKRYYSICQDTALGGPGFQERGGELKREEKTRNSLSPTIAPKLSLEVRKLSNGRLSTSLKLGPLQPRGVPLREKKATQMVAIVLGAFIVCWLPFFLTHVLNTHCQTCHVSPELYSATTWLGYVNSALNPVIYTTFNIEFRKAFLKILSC

| SMILES | Ki |
| --- | --- |
| C[C@H]1CC[C@H](NC(=O)[C@@H]2CC[C@H]2CN2CCN(c3noc4ccsc34)CC2)CC1 (racemic) [compound 829996] | 277 nM |
| C[C@H]1CC[C@H](NC(=O)[C@@H]2CC[C@H]2CN2CCCN(c3noc4ccsc34)CC2)CC1 (racemic) [compound 830000] | 286 nM |
| CCC1CCC(NC(=O)C2CC2CN2CCN(c3nn(-c4ccc(C(F)(F)F)cc4)c4ccccc34)CC2)CC1 (racemic) [compound 830046] | 16.5 nM |
| CCC1CCC(NC(=O)C2CC2CN2CCC(c3cc4cc(OC)cc(Br)c4o3)CC2)CC1 (racemic) [compound 830112] | 54 nM |
| CC1CCC(NC(=O)C2CC2CN2CCN(c3nn(-c4ccccc4F)c4ccccc34)CC2)CC1 (racemic) [compound 830114] | 5.42 nM |
| CC1CCC(NC(=O)C2CC2CN2CCN(c3n[nH]c4ccccc34)CC2)CC1 (racemic) [compound 830116] | 13.1 nM |
| CC1CCC(NC(=O)C2CC2CN2CCN(c3onc4c3CCc3ccccc3-4)CC2)CC1 (racemic) [compound 830121] | 47.1 nM |
| CC1CCC(NC(=O)C2CC2CN2CCN(c3n[nH]c4cc(Cl)ccc34)CC2)CC1 (racemic) [compound 830124] | 1.84 nM |
| CC1CCC(NC(=O)C2CC2CN2CCCN(c3noc4ccsc34)CC2)CC1 (racemic) [compound 830126] | 23.8 nM |
| CC1CCC(NC(=O)C2CC2CN2CCN(c3noc4ccsc34)CC2)CC1 (racemic) [compound 830127] | 1.66 nM |
| COc1c(F)ccc2c(C3CCN(CC4CC4C(=O)NC4CCC(C)CC4)CC3)noc12 (racemic) [compound 830134] | 0.602 nM |
| O=C(NCCc1cccs1)C1CC1CN1CCC(c2noc3ccsc23)CC1 (racemic) [compound 831385] | 22.7 nM |
| O=C(Cc1ccccc1)NNC(=O)C1CC1CN1CCC(c2noc3ccsc23)CC1 (racemic) [compound 831452] | 115 nM |
| O=C(OCc1ccccc1)N1CCN(C(=O)C2CC2CN2CCC(c3noc4ccsc34)CC2)CC1 (racemic) [compound 831453] | 18.3 nM |
| O=C(NCc1ccc(-c2ccccc2)cc1)C1CC1CN1CCC(c2noc3ccsc23)CC1 (racemic) [compound 831455] | 6.79 nM |
| O=C(NC1CCN(Cc2ccccc2)CC1)C1CC1CN1CCC(c2noc3ccsc23)CC1 (racemic) [compound 831457] | 1.83 nM |
| O=C(C1CC1CN1CCC(c2noc3ccsc23)CC1)N1CCC(c2ccccc2)C1 (racemic) [compound 831602] | 19.6 nM |
| O=C(NCCNc1ccccc1)C1CC1CN1CCC(c2noc3ccsc23)CC1 (racemic) [compound 831603] | 20.9 nM |
| CC(C)COC(=O)n1c(CCCNC(=O)C2CC2CN2CCC(c3noc4ccsc34)CC2)nc2ccccc21 (racemic) [compound 831621] | 70.3 nM |
| O=C(NCCCc1nc2ccccc2[nH]1)C1CC1CN1CCC(c2noc3ccsc23)CC1 (racemic) [compound 831622] | 34.6 nM |
| O=C(NCCS(=O)(=O)c1cccc2c(Cl)cccc12)C1CC1CN1CCC(c2noc3ccsc23)CC1 (racemic) [compound 831689] | 16.4 nM |
| NS(=O)(=O)c1ccc(CCNC(=O)C2CC2CN2CCC(c3noc4ccsc34)CC2)cc1 (racemic) [compound 831701] | 55.7 nM |
| O=C(C1CC1CN1CCC(c2noc3ccsc23)CC1)N1CCC(c2cc(-c3ccco3)[nH]n2)CC1 (racemic) [compound 831704] | 47.5 nM |
| O=C(NCCS(=O)(=O)c1ccccc1)C1CC1CN1CCC(c2noc3ccsc23)CC1 (racemic) [compound 831736] | 291 nM |
| O=C(C1CC1CN1CCC(c2noc3ccsc23)CC1)N1CCC(Oc2ccc(Cl)cc2)CC1 (racemic) [compound 831794] | 27.3 nM |
| COc1ccc(CN2CCC(NC(=O)C3CC3CN3CCC(c4noc5ccsc45)CC3)CC2)cc1 (racemic) [compound 831795] | 1.82 nM |
| O=C(NCCc1cccc(Cl)c1)C1CC1CN1CCC(c2noc3ccsc23)CC1 (racemic) [compound 831799] | 12.1 nM |
| O=C(NCCc1ccc(Cl)cc1)C1CC1CN1CCC(c2noc3ccsc23)CC1 (racemic) [compound 831800] | 5 nM |

Now from value to compound:

| Ki | SMILES |
| --- | --- |
| 10.4 nM | C[C@H]1CC[C@H](NC(=O)[C@@H]2CC[C@H]2CN2CCCN(c3csc4cc(F)ccc34)CC2)CC1 (racemic) [compound 829997] |
| 73.8 nM | CC1CCC(NC(=O)C2CC2CN2CCCN(c3onc4c3CCc3ccccc3-4)CC2)CC1 (racemic) [compound 830123] |
| 69.7 nM | CCOC(=O)c1cc2ccc(N3CCCN(CC4CC4C(=O)NC4CCC(CC)CC4)CC3)cc2s1 (racemic) [compound 830128] |
| 4.16 nM | CCC1CCC(NC(=O)C2CC2CN2CCN(c3nn(-c4ccccc4)c4cc(F)ccc34)CC2)CC1 (racemic) [compound 830129] |
| 34.1 nM | CCC1CCC(NC(=O)C2CC2CN2CCCN(c3onc4c3CCc3ccc(OC)cc3-4)CC2)CC1 (racemic) [compound 830131] |
| 9.26 nM | CCC1CCC(NC(=O)C2CC2CN2CCC(c3ccccc3Cc3ccccc3)CC2)CC1 (racemic) [compound 830132] |
| 17.6 nM | COc1ccc2[nH]nc(N3CCN(CC4CC4C(=O)NC4CCC(C)CC4)CC3)c2c1 (racemic) [compound 830439] |
| 0.861 nM | O=C(C1CC1CN1CCC(c2noc3ccsc23)CC1)N1CCN(Cc2ccc(Cl)c(Cl)c2)CC1 (racemic) [compound 831390] |
| 1.86 nM | O=C(NCc1ccc2ccccc2c1)C1CC1CN1CCC(c2noc3ccsc23)CC1 (racemic) [compound 831454] |
| 6.21 nM | O=C(NCCc1cccnc1)C1CC1CN1CCC(c2noc3ccsc23)CC1 (racemic) [compound 831456] |
| 7.43 nM | O=C(c1ccc(Cl)cc1)C1CCN(C(=O)C2CC2CN2CCC(c3noc4ccsc34)CC2)CC1 (racemic) [compound 831458] |
| 49.8 nM | COc1ccc(C2=CCN(C(=O)C3CC3CN3CCC(c4noc5ccsc45)CC3)CC2)cc1 (racemic) [compound 831599] |
| 173 nM | O=C(NCCNC(=O)C1CC1CN1CCC(c2noc3ccsc23)CC1)OCc1ccccc1 (racemic) [compound 831649] |
| 25.3 nM | O=C(NCCCCc1cccnc1)C1CC1CN1CCC(c2noc3ccsc23)CC1 (racemic) [compound 831686] |
| 277 nM | O=C(NCCCn1nnc2ccccc21)C1CC1CN1CCC(c2noc3ccsc23)CC1 (racemic) [compound 831687] |
| 27.9 nM | O=C(C1CC1CN1CCC(c2noc3ccsc23)CC1)N1CCC(c2nc3ccccc3s2)CC1 (racemic) [compound 831702] |
| 45 nM | O=C(C1CC1CN1CCC(c2noc3ccsc23)CC1)N1CCC(c2cc(-c3cccs3)[nH]n2)CC1 (racemic) [compound 831703] |
| 81.3 nM | O=C(NCc1cccc(Oc2ccccc2)c1)C1CC1CN1CCC(c2noc3ccsc23)CC1 (racemic) [compound 831735] |
| 1.25 nM | O=C(C1CC1CN1CCC(c2noc3ccsc23)CC1)N1CCC(n2c(=O)[nH]c3ccccc32)CC1 (racemic) [compound 831737] |
| 223 nM | CCN(CC)C(=O)C1CCN(C(=O)C2CC2CN2CCC(c3noc4ccsc34)CC2)CC1 (racemic) [compound 831738] |
| 2.96 nM | CN(C)Cc1ccc(CSCCNC(=O)C2CC2CN2CCC(c3noc4ccsc34)CC2)o1 (racemic) [compound 831740] |
| 125 nM | CN1CCN(CCCNC(=O)C2CC2CN2CCC(c3noc4ccsc34)CC2)CC1 (racemic) [compound 831741] |
| 46.3 nM | O=C(NCCc1ccccc1Cl)C1CC1CN1CCC(c2noc3ccsc23)CC1 (racemic) [compound 831798] |
